One molecule from publication PMC8571521, “^19F-NMR reveals substrate specificity of CYP121A1 in Mycobacterium tuberculosis” (The Journal of Biological Chemistry, 2021) can be followed below.

The target in experiment [1] is T1, CYP121A1 (Mycobacterium tuberculosis, UniProt P9WPP7, S171C).
T1 construct: gene cyp121
The format is binding.

Experiment [2] addresses T2, CYP121A1 (Mycobacterium tuberculosis, UniProt P9WPP7, I166A/S171C/I180A).
T2 construct: gene cyp121
Type of experiment: binding.

SMILES strings stand for the structures.

As for `c1c[nH]cn1` [imidazole], the “19F-NMR titration (25-200 mM) with stepwise Soret shift” value in experiment [1] is recorded as “changes in the NMR spectra correlated closely with a stepwise shift in the Soret band of the protein”. Also, the “19F-NMR titration with absorption (Soret) readout” value in experiment [2] is “in the I166A_I180A mutant, we observed rapid saturation for both of the NMR and wavelength absorption outputs”.
